The values below are quoted from earlier work in paper PMC8172013, “Carboxylesterase Notum Is a Druggable Target to Modulate Wnt Signaling” (Journal of Medicinal Chemistry, 2021).

Read-outs that look alike come from different tables or passages of the source.

Data set [1] deals with T1, Notum (Homo sapiens, UniProt Q6P988).
T1 sequence (Q6P988 20-496): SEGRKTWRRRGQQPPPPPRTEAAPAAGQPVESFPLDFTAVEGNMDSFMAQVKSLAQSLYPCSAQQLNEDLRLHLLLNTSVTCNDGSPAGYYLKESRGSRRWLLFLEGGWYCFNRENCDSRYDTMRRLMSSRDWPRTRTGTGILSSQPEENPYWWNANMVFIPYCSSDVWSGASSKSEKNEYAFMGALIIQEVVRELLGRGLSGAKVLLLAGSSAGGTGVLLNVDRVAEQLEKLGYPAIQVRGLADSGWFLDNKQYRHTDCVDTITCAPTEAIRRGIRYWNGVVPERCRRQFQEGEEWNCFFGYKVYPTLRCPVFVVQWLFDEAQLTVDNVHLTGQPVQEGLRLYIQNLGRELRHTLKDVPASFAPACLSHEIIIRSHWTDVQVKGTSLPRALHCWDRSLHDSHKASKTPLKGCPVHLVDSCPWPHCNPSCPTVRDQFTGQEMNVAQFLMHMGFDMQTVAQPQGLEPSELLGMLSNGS
Particulars: OPTS assay.

Data set [2] addresses T1, Notum.
For data set [3], the target named is T1, Notum. Particulars: TCF/LEF assay.
For data set [4] the following is noted: mouse, 10 mg/kg po.
Data set [5] deals with midshaft femur cortical thickness. The note with it: mice, 3, 10, 30 mg/kg po daily, 25 days.
Another data set deals with bone formation. More on the design: method as in PMID 19072540, PMID 19932972. Particulars: ex vivo model of bone formation.

Consider `Cc1cc(C(=O)O)c(C)n1-c1cccc(C(C)C)c1F` [Compound 60], for which the IC50 – broadly, the point on the concentration scale where inhibition reaches its midpoint – at Notum [1] is 150 nM. Turning to `O=C(c1ccc(Cl)cc1)N1CCN2C(=O)N(OC(=O)N3CCOc4ccccc43)C(=O)C2C1` (centres unmarked) [ABC101], the IC50 at Notum [2] (competitive gel-based ABPP, read-out: Notum IC50) was more than 10000 nM. Also, the EC50 (as a rule, the concentration that produces a half-maximal response) at Notum [3] is more than 5000 nM. For the compound `O=C(C1CCN(c2ccc(Cl)c(C(F)(F)F)c2)C1)N1CC(F)(F)C1` (centres unmarked) [Compound 62], the IC50 at Notum [1] was 260 nM.

Consider `Cc1csc2c(SCC(=O)O)ncnc12` [Compound 36], for which the IC50 on Notum [1] was 190 nM. On to `C#CCN1CCN(C(=O)ON2C(=O)C3CN(Cc4ccc(Cl)cc4)CCN3C2=O)c2ccccc21` (centres unmarked) [ABC99yne], for which the IC50 entry at Notum [2] (stated in words) is recorded as “sub-micromolar”. With `O=c1[nH]nc(C2CCN(c3ccc(Cl)c(C(F)(F)F)c3)C2)o1` (centres unmarked) [Compound 63], on Notum [1], the IC50 is 4200 nM. As for `Cc1sc2ncnc(SCC(=O)O)c2c1Cl` [Compound 37], on Notum [3], the concentration giving a half-maximal response (EC50) was approximately 100 nM. On to `Cc1c(Cl)sc2ncnc(SCC(=O)N3CC(=O)N(C)C3)c12` [Compound 40], for which the plasma exposure result in data set [4] is “low plasma exposure”. The IC50 at Notum [1] was 2.4 nM. Consider `CCCc1sc2ncnc(SCC(=O)O)c2c1Cl` [Compound 38], for which, on Notum [3], the EC50 is approximately 100 nM.

Consider `Cc1cc(C(=O)O)c(C)n1C1CC1` [Compound 58], for which the IC50 on Notum [1] is 6300 nM. Take `O=C(O)CSc1ncnc2c(C3CC3)c(Cl)sc12` [Compound 26]: the “midshaft femur cortical thickness” value in data set [5] is given as “increases in midshaft femur cortical thickness at all doses tested”.

With `CC(C)(C)NC(=O)N1CCC[C@H]1C(=O)N1CCC(NS(=O)(=O)c2ccc(S(=O)(=O)c3ccccc3)cc2C(F)(F)F)CC1` [WAY-362692], in the data set with bone formation, the “increase in total bone area” value is reported as 75%.
